# Reference: PMC7394244 (Journal of medicinal chemistry, 2020)
# Several values for one entry are separate records, joined by “and”; a condition that tells them apart may be missing. Equal values may be shown once. Read-outs that look alike come from different tables or passages of the source.
# Experiments:
# [1] = cited from earlier work
# [2] = mouse liver microsomes; cited from earlier work
# [3] = system: R1BC1A; assay: microbe, parasite or virus in culture; details: Plasmodium falciparum, read-out: EC50 R1BC1A
# [4] = human plasma; cited from earlier work
# [5] = human liver microsomes; cited from earlier work
# [6] = system: R10C1B; assay: microbe, parasite or virus in culture; details: Plasmodium falciparum, read-out: EC50 R10C1B
# [7] = rat liver microsomes; cited from earlier work
# [8] = system: P. falciparum Dd2; details: read-out: EC50 Dd2 (parental); cited from earlier work
# [9] = mouse plasma; cited from earlier work
# [10] = system: R2B; assay: microbe, parasite or virus in culture; details: Plasmodium falciparum, read-out: EC50 R2B
# [11] = In vitro metabolism, mouse liver microsomes
# [12] = rat plasma; cited from earlier work
# [13] = cited from earlier work; remark: listed apart in the source
# [14] = cited from earlier work; remark: listed apart in the source
# [15] = cited from earlier work; remark: listed apart in the source
# [16] = system: Pf3D7 cells; assay: P. falciparum 3D7 growth inhibition; assay type: cell-based
# [17] = target: T1, PfDHODH (Plasmodium falciparum, UniProt Q08210); assay: biochemical; parameters: species or system P. falciparum
# T1 sequence (Q08210 24-569): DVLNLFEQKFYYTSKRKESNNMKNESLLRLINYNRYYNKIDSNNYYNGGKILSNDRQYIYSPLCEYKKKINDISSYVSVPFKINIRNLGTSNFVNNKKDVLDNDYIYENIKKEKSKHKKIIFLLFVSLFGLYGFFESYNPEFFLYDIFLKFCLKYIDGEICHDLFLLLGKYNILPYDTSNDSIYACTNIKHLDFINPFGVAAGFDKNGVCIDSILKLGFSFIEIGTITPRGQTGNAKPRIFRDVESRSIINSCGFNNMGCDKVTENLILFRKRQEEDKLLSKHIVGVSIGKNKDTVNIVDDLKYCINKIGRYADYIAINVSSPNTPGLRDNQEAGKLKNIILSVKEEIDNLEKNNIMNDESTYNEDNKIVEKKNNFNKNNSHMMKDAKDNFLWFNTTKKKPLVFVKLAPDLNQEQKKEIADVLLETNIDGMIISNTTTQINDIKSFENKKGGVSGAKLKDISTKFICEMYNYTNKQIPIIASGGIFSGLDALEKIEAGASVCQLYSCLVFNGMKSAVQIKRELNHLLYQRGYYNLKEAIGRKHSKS
# [18] = Plasma protein binding; assay type: in vitro ADME; details: human plasma
# [19] = Plasma protein binding; assay type: in vitro ADME; details: mouse plasma
# [20] = target: hERG (Homo sapiens, UniProt Q12809); assay: hERG IonWorks patch clamp electrophysiology; assay type: cell-based
# Chain of hERG (Q12809 whole entry): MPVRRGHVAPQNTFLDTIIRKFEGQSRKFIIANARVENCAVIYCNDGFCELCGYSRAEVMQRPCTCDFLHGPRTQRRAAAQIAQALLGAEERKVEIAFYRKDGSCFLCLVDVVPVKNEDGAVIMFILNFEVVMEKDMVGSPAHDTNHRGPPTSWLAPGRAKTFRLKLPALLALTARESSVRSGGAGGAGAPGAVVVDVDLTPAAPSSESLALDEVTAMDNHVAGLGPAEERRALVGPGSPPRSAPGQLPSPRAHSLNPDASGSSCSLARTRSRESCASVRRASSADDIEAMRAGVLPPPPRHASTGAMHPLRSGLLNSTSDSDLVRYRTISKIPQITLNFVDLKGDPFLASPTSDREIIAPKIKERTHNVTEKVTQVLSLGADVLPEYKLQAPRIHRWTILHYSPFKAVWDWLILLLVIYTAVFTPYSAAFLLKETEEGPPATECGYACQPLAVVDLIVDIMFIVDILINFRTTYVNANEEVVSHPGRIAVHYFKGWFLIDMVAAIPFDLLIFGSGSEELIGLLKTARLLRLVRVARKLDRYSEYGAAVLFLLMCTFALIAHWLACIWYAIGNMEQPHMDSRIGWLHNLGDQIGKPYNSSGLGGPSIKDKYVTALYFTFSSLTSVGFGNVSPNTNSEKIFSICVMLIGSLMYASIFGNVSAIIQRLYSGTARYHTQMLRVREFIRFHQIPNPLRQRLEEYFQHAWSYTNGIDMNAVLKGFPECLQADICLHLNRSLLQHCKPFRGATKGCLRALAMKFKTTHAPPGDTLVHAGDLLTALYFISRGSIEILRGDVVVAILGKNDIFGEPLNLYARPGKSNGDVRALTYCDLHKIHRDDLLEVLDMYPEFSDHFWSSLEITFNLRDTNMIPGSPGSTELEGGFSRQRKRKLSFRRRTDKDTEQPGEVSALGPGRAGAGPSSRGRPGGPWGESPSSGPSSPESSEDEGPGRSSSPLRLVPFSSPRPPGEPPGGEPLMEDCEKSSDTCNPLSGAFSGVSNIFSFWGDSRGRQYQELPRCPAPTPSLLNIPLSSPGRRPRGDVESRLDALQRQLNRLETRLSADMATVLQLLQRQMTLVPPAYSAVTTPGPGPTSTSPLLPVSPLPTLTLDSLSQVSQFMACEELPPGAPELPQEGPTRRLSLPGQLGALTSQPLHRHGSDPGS
# [21] = Albumax medium binding; assay type: in vitro ADME
# [22] = Blood exposure in P. falciparum-infected SCID mice; assay type: in vivo; details: NOD-scidIL2Rγnull, mouse, whole blood, po
# [23] = in vivo; details: male, Swiss outbred, mouse, plasma, iv
# [24] = Microsome binding; assay type: in vitro ADME, human
# [25] = Plasma protein binding; assay type: in vitro ADME; details: rat plasma
# [26] = target: KV1.5 K+ (Homo sapiens, UniProt P22460); assay: Potassium channel IonWorks patch clamp electrophysiology; assay type: cell-based
# Chain of KV1.5 K+ (P22460 whole entry): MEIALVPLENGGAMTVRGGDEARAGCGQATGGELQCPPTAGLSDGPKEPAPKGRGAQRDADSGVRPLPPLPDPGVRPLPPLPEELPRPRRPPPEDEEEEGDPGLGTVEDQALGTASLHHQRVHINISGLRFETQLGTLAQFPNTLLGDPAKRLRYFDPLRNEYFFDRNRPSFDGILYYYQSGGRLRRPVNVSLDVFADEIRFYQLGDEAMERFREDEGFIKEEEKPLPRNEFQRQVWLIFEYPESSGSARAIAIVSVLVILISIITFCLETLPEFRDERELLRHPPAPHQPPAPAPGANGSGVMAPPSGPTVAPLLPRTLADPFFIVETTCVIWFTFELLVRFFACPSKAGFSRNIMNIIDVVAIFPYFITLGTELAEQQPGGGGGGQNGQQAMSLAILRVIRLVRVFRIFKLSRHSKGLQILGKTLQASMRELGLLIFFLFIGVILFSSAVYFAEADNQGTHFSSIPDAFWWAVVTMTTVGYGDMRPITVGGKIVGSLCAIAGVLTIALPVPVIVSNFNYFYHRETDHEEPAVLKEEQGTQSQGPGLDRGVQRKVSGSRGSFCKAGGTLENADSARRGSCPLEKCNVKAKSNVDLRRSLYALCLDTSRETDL
# [27] = Plasmodium falciparum, read-out: EC50 Pf3D7 cells
# [28] = Plasmodium falciparum, read-out: potency on Pf3D7 parasites
smiles,measurement,setting,value
Cc1cc(Nc2ccc(S(F)(F)(F)(F)F)cc2)n2nc(C(C)(F)F)nc2n1 [Compound 1],human half-life,[1],~ 100 hours
same,M CLint,[2],<7 / <7 / <7 μL/min/mg
same,EC50,[3],80 nM
same,H plasma protein binding,[4],99.9 % bound
same,H CLint,[5],<7 / <7 / <7 μL/min/mg
same,EC50,[6],120 nM
same,R CLint,[7],<7 / <7 / <7 μL/min/mg
same,EC50,[8],4.6 nM
same,M plasma protein binding,[9],99.7 % bound
same,EC50,[10],74 nM
same,microsomal CLint at 1 μM,[11],8 µL/min/mg
same,R plasma protein binding,[12],97.0 % bound
same,Albumax binding,[13],83.1 % bound
same,Solubility FeSSIF (pH 5.8),[14],27.6 μg/mL
same,Microsome binding,[15],71.7 % bound
"CCOC(=O)c1[nH]c(C)c(Cc2ccc(OCC)cc2)c1C [Compound 3, Ethyl 4-(4-ethoxybenzyl)-3,5-dimethyl-1H-pyrrole-2-carboxylate]",EC50,[16]; [27],230 nM
same,EC50,[16]; read-out: EC50 Pf3D7 cells,250 nM
"CCOC(=O)c1[nH]c(C)c(Cc2ccc(C(F)(F)F)cc2)c1C [Compound 4, Ethyl 3,5-dimethyl-4-(4-(trifluoromethyl)benzyl)-1H-pyrrole-2-carboxylate]",EC50,[16]; [27],61 nM
same,EC50,[16]; read-out: EC50 Pf3D7 cells,71 nM
"CCNC(=O)c1[nH]c(C)c(Cc2ccc(C(F)(F)F)nc2)c1C [Compound 16, N-Ethyl-3,5-dimethyl-4-((6-(trifluoromethyl)pyridin-3-yl)methyl)-1H-pyrrole-2-carboxamide]",EC50,[16]; [28],< 50 nM
same,IC50,[17]; potency on PfDHODH,< 50 nM
"Cc1[nH]c(C(=O)NC2CC2)c(C)c1Cc1ccc(C(F)(F)F)nc1 [Compound 18, N-Cyclopropyl-3,5-dimethyl-4-((6-(trifluoromethyl)pyridin-3-yl)methyl)-1H-pyrrole-2-carboxamide]",EC50,[16]; [28],< 50 nM
"Cc1[nH]c(C(=O)NC2CCC2)c(C)c1Cc1ccc(C(F)(F)F)nc1 [Compound 19, N-Cyclobutyl-3,5-dimethyl-4-((6-(trifluoromethyl)pyridin-3-yl)methyl)-1H-pyrrole-2-carboxamide]",IC50,[17]; IC50 PfDHODH,72 nM and 42 nM
"Cc1[nH]c(C(=O)NC2CCC2)c(C)c1Cc1ccc(C(F)(F)F)cn1 [Compound 25, N-Cyclobutyl-3,5-dimethyl-4-((5-(trifluoromethyl)pyridin-2-yl)methyl)-1H-pyrrole-2-carboxamide]",EC50,[16]; [27],470 nM
same,EC50,[16]; read-out: EC50 Pf3D7 cells,680 nM
Cc1c(Cc2ccc(C(F)(F)F)nc2)c[nH]c1C(=O)NC1CC1 [Compound 37],H plasma protein binding,[18],90 % bound
same,M plasma protein binding,[19],88 % bound and 88.9 % bound
same,Human Ion Channel activity hERG,[20],>33 µM
same,Albumax binding,[21],51.8 % bound
same,AUC(0-t),[22]; 10 mg/kg,680 ng·h/mL
same,AUC(0-t),[22]; 50 mg/kg,8600 ng·h/mL
same,Cmax,[22]; 50 mg/kg,2520 ng/mL
same,clearance at 24 h,[23],26.1 mL/min/kg
same,Microsome binding,[24],29.9 % bound
same,R plasma protein binding,[25],88.2 % bound
same,Human Ion Channel activity KV1.5 K+,[26],>11 µM
"Cc1c(Cc2ccc(C(F)(F)F)nc2)c[nH]c1C(=O)NCC(F)(F)F [Compound 39, 3-Methyl-N-(2,2,2-trifluoroethyl)-4-((6-(trifluoromethyl)pyridin-3-yl)methyl)-1H-pyrrole-2-carboxamide]",EC50,[16]; [27],44 nM
same,EC50,[16]; read-out: EC50 Pf3D7 cells,59 nM
"Cc1c(Cc2ccc(C(F)(F)F)cc2F)c[nH]c1C(=O)NC1CC1 [Compound 60, N-Cyclopropyl-4-(2-fluoro-4-(trifluoromethyl)benzyl)-3-methyl-1H-pyrrole-2-carboxamide]",EC50,[16]; [28],< 30 nM
"Cc1c(Cc2ccc(C(F)(F)F)cc2Cl)c[nH]c1C(=O)NC1CC1 [Compound 66, 4-(2-chloro-4-(trifluoromethyl)benzyl)-N-cyclopropyl-3-methyl-1H-pyrrole-2-carboxamide]",EC50,[16]; [28],< 30 nM
